Test results as given in patent publication US9315491B2 (DEVELOPMENT CENTER FOR BIOTECHNOLOGY, priority 2009, dated 2016).

Key:
p-S6K (mTORC1) = experiment: Immunoblotting, PI3K/Akt/mTOR signal transduction, p-S6K; format: cell-based; conditions: Homo sapiens; PC-3 cell
Description: (§1) For immunoblotting experiments, A549 cells were inoculated to the wells of a 6-well culture plate and cultured overnight. […] Proteins were separated by SDS-PAGE electrophoresis and transferred to PVDF membrane. Protein expression was immunobloted by various primary antibodies and detected by Immobilon Western Chemiluminescent HRP Substrate (Millipore). Antibody against Akt, phosphor-Akt (Ser473), phosphor-Akt (Thr308), p70 S6 Kinase, phosphor-p70 S6 Kinase (Thr389), 4E-BP1, and phosphor-4E-BP1 (Thr37/46) were purchased form Cell Signaling Technology.

p-Akt S473 (mTORC2) = experiment: Immunoblotting, PI3K/Akt/mTOR signal transduction, p-Akt S473; format: cell-based; conditions: Homo sapiens; PC-3 cell
Description: as §1

recombinant mTOR = recombinant mTOR (Homo sapiens (Human), UniProt P42345); experiment: mTOR kinase assay (33P incorporation into 4EBP1); format: biochemical; conditions: compound at 10 μM, 10 μM ATP
Outline: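 Recombinant human mTOR (50 ng) phosphorylated His-tagged 4EBP1 (300 ng) with 10 μM ATP plus [γ-33P]-ATP in HEPES pH 7.5, MnCl2, EGTA and DTT for 30 min at 30° C. Labelled 4EBP1 was filter-captured and counted. IC50 was derived from eight-point duplicate dilution series.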

PI3K (p110α/p85α) = PI3K (p110α/p85α) (Homo sapiens (Human), UniProt P42336); experiment: PI3K HTRF enzyme assay, p110α/p85α; format: biochemical; conditions: read-out: % inhibition @ 500 nM p110α; compound at 500 nM, 10 μM ATP
Outline: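 Recombinant PI3K heterodimers with PIP2 substrate; reactions ran 30 min at room temperature with 10 μM ATP for p110α/p85α and 100 μM ATP for p110β/p85α. After stop, HTRF detection followed 17 h incubation in the dark at room temperature; HTRF ratio used as read-out.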

PI3K (p110β/p85α) = PI3K (p110β/p85α) (Homo sapiens (Human), UniProt P42338); experiment: PI3K HTRF enzyme assay, p110β/p85α; format: biochemical; conditions: read-out: % inhibition @ 500 nM p110β; compound at 500 nM, 100 μM ATP
Protocol: Recombinant PI3K (p110α/p85α) and PI3K (p110β/p85α) were from Millipore. […] Briefly, the compounds of interest dissolved in 100% DMSO were dispensed in all wells, following which the mixture of PIP2 and enzyme was added. PI3K (p110α/p85α) and PI3K (p110β/p85α) enzyme reactions were initiated in the presence of 10 μM and 100 μM ATP, respectively, and incubated for 30 min at room temperature. STOP solution prepared 2 hours prior to use was added to stop reactions, and mixed well. Detection solution prepared 2 hours prior to use was added, and incubated at room temperature for 17 hours in the dark. […] HTRF ration was calculated as follows: […]

p-Akt T308 (PI3K) = experiment: Immunoblotting, PI3K/Akt/mTOR signal transduction, p-Akt T308; format: cell-based; conditions: Homo sapiens; PC-3 cell
Description: as §1

Sequence of PI3K (p110β/p85α) (P42338 whole entry, species assumed): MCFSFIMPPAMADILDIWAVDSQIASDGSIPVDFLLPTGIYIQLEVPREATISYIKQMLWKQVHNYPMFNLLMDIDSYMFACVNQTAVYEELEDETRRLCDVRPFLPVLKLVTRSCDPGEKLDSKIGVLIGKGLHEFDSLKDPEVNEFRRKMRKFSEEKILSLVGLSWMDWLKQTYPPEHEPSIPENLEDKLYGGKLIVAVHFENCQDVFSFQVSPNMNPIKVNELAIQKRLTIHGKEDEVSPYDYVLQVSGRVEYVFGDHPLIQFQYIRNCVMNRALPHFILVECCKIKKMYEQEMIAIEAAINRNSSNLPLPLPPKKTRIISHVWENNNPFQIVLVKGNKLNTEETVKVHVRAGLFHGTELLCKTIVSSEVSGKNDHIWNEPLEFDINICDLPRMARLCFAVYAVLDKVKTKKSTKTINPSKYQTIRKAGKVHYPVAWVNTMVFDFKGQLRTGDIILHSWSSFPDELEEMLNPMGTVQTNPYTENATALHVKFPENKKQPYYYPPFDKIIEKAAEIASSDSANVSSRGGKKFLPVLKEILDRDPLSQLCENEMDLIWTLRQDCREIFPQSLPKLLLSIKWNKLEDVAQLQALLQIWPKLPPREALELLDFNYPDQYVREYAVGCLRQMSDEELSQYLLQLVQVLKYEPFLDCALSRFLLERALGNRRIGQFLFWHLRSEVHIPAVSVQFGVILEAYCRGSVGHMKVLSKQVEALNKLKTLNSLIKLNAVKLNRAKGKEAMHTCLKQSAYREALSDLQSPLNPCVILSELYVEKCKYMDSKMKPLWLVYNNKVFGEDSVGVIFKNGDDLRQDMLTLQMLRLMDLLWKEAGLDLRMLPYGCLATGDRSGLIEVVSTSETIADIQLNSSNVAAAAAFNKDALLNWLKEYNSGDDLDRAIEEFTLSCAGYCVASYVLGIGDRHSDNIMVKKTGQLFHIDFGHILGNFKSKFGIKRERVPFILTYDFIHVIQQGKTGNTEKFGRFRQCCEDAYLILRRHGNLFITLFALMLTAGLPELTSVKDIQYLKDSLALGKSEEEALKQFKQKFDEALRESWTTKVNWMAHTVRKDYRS
Sequence of PI3K (p110β/p85α) (P27986 whole entry partner, species assumed): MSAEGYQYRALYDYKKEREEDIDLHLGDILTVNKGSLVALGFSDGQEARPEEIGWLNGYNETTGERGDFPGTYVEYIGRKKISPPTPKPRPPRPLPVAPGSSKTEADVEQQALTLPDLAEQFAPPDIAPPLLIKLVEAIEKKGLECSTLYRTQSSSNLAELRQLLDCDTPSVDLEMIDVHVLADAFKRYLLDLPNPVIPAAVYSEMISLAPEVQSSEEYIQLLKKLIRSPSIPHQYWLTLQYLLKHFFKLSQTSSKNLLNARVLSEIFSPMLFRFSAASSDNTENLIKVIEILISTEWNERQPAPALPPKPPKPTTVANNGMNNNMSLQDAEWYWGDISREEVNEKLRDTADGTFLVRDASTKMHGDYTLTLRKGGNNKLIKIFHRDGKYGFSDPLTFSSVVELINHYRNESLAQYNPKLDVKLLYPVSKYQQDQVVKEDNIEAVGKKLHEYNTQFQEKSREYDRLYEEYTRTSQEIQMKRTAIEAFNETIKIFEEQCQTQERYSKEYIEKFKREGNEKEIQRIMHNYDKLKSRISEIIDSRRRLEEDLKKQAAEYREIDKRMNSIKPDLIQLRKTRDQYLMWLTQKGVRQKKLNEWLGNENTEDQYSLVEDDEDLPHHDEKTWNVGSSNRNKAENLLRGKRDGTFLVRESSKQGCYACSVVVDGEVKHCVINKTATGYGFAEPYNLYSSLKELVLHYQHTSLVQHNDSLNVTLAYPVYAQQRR
Sequence of recombinant mTOR (P42345 1360-2549): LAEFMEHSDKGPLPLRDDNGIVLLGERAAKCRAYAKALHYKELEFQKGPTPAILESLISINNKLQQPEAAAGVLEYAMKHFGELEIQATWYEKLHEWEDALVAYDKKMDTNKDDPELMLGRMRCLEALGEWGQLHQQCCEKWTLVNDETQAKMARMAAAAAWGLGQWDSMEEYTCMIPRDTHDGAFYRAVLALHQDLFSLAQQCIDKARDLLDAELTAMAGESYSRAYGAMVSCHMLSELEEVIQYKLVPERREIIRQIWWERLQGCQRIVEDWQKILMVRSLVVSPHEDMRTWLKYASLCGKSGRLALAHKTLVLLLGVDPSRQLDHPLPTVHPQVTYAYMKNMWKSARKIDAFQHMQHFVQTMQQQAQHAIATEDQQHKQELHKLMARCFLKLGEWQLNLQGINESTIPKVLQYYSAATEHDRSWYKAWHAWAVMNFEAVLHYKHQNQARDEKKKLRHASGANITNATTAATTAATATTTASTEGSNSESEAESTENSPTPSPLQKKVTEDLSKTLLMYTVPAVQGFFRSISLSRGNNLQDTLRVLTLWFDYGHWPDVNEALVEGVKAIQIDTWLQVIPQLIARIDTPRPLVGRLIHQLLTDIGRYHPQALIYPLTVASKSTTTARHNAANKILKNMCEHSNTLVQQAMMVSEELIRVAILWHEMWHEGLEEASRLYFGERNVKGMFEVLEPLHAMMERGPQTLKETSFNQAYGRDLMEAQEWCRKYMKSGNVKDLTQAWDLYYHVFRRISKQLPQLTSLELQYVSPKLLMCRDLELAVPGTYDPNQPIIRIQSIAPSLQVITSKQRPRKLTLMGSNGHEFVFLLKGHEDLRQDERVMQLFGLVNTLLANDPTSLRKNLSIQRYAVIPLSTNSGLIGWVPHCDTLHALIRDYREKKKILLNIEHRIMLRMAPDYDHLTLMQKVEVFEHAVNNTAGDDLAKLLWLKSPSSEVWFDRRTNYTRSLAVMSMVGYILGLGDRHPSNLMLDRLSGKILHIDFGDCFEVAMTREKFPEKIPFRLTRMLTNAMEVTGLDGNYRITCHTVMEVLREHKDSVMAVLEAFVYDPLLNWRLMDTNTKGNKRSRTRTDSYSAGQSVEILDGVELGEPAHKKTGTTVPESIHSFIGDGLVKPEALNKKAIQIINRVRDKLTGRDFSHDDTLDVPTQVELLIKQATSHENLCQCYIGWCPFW
Sequence of PI3K (p110α/p85α) (P42336 whole entry, species assumed): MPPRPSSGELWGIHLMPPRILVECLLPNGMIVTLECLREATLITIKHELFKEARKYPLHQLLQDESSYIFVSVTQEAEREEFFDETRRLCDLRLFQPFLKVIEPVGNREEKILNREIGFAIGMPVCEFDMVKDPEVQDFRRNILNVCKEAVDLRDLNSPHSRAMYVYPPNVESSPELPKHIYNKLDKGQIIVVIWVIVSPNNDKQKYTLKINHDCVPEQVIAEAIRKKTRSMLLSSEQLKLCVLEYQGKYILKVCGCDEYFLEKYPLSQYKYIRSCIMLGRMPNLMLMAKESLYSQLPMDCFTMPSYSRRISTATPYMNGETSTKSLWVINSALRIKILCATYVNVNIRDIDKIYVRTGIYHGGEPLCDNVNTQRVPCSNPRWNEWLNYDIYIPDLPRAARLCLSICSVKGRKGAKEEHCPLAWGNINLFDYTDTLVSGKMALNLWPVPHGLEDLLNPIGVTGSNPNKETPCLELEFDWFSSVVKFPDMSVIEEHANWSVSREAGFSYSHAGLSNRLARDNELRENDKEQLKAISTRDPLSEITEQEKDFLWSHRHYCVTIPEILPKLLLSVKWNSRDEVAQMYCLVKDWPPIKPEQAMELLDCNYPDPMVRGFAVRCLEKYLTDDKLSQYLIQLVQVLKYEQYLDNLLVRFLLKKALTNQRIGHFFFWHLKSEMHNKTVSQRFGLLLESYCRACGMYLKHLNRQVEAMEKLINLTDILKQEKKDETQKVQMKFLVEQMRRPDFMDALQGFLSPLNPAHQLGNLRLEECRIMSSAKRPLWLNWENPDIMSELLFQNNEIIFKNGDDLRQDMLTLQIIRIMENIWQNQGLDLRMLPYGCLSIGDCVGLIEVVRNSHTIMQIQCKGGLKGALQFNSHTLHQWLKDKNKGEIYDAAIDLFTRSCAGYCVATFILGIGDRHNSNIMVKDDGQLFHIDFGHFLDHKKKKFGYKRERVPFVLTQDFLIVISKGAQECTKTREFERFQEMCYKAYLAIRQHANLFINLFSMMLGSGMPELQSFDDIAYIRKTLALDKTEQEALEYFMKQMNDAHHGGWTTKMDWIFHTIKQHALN
Sequence of PI3K (p110α/p85α) (P27986 whole entry partner, species assumed): as the sequence (P27986 whole entry partner, species assumed) above

Structure (SMILES) | IC50 (p-S6K (mTORC1)) | IC50 (p-Akt S473 (mTORC2)) | inhibition at 10 µM (recombinant mTOR) | inhibition at 0.5 µM (PI3K (p110α/p85α)) | inhibition at 0.5 µM (PI3K (p110β/p85α)) | IC50 (p-Akt T308 (PI3K))
Cn1c(=O)n(-c2ccc(C(C)(C)C#N)cc2)c2c3cc(-c4cnc5ccccc5c4)ccc3ncc21 [BEZ-235] | < 10 nM | 28.9 nM |  |  |  | 
CS(=O)(=O)N1CCN(Cc2cc3nc(-c4cccc5[nH]ncc45)nc(N4CCOCC4)c3s2)CC1 [GDC-0941] | 451 nM | 11.5 nM |  |  |  | 
CSc1c(Cl)nc(-c2ccc(NC(=O)Nc3ccc(F)cc3)cc2)nc1N1CCOCC1 [MTR-0135, 1-[4-(4-Chloro-5-methylsulfanyl-6-morpholin-4-yl-pyrimidin-2-yl)-phenyl]-3-(4-fluoro-phenyl)-urea] |  |  | 90% | 70.1% | 14.2% | 
COc1cnc(-c2ccc(NC(=S)Nc3cccc(F)c3)cc2)nc1N1CCOCC1 [MTR-0168, 1-(3-Fluoro-phenyl)-3-[4-(5-methoxy-4-morpholin-4-yl-pyrimidin-2-yl)-phenyl]-thiourea] |  |  | 91% | 65% | 20.2% | 
CO[C@H]1C[C@@H]2CC[C@@H](C)[C@@](O)(O2)C(=O)C(=O)N2CCCC[C@H]2C(=O)O[C@H]([C@H](C)C[C@@H]2CC[C@@H](O)[C@H](OC)C2)CC(=O)[C@H](C)/C=C(\C)[C@@H](O)[C@@H](OC)C(=O)[C@H](C)C[C@H](C)/C=C/C=C/C=C/1C [Rapamycin, rapamycin, reference compound] | < 10 nM | < 10 nM |  |  |  | > 1000 nM

Results, then the compound that gave them:

IC50 (p-S6K (mTORC1)) | IC50 (p-Akt S473 (mTORC2)) | inhibition at 10 µM (recombinant mTOR) | inhibition at 0.5 µM (PI3K (p110α/p85α)) | inhibition at 0.5 µM (PI3K (p110β/p85α)) | IC50 (p-Akt T308 (PI3K)) | Structure (SMILES)
 |  | 93% | 70% | 4.5% |  | CSc1c(Cl)nc(-c2ccc(N)nc2)nc1N1CCOCC1 [MTR-0133, 5-(4-Chloro-5-methylsulfanyl-6-morpholin-4-yl-pyrimidin-2-yl)-pyridin-2-ylamine]
64.9 nM | 35.6 nM |  |  |  |  | Oc1cccc(-c2nc(N3CCOCC3)c3oc4ncccc4c3n2)c1 [PI-103]
